This note sets out measurements from ChEMBL document CHEMBL5505975, “Design, synthesis and biological evaluation of CDC20 inhibitors for treatment of triple-negative breast cancer” (Eur J Med Chem, 2024).

One series concerns MDA-MB-468. Kind of series: Antiproliferative activity against human MDA-MB-468 cells assessed as reduction in cell viability incubated for 96 hrs by MTT assay. As to conditions: MDA-MB-468, 96 h. (In general: Tetrazolium dyes change colour on reduction, which living cells bring about.)
For the next series, the system named is A549. Kind of series: Antiproliferative activity against human A549 cells assessed as reduction in cell viability incubated for 96 hrs by MTT assay. The following applies: A549, 96 h.
The test system of series [1] is MDA-MB-231. Kind of series: Antiproliferative activity against human MDA-MB-231 cells assessed as reduction in cell viability incubated for 96 hrs by MTT assay. The following applies: MDA-MB-231, 96 h.
Another series deals with MCF7. Kind of series: Antiproliferative activity against human MCF7 cells assessed as reduction in cell viability incubated for 96 hrs by MTT assay. The following applies: MCF7, 96 h.
A short description of series [2]: Cytotoxicity against human L02 cells assessed as reduction in cell viability incubated for 96 hrs by MTT assay. The class given is toxicity, cell-based.
The subject of series [3] is MDA-MB-231. Kind of series: Cell cycle arrest in human MDA-MB-231 cells assessed as G2 phase cells at 100 uM incubated for 24 hrs by PI staining based flow cytometric analysis (reference value: 18.6%). The format is functional. Background: A flow cytometer gives signals particle by particle.
Series [4] concerns MDA-MB-231. Kind of series: Cell cycle arrest in human MDA-MB-231 cells assessed as G1 phase cells at 100 uM incubated for 24 hrs by PI staining based flow cytometric analysis (reference value: 51.5%). The class given is functional.
In series [5] the test system is MDA-MB-231. Kind of series: Cell cycle arrest in human MDA-MB-231 cells assessed as G2 phase cells at 100 uM incubated for 48 hrs by PI staining based flow cytometric analysis (reference value: 18.6%). The class given is functional.
Series [6] concerns MDA-MB-231. Kind of series: Induction of apoptosis in human MDA-MB-231 cells assessed as late apoptotic cells at 100 uM incubated for 48 hrs by Annexin V-FITC/PI staining based flow cytometric analysis (reference value: 1.06%). The class given is functional.
In series [7] the test system is MDA-MB-231. Kind of series: Cell cycle arrest in human MDA-MB-231 cells assessed as G1 phase cells at 100 uM incubated for 72 hrs by PI staining based flow cytometric analysis (reference value: 51.5%). The format is functional.
Series [8] relates to MDA-MB-231. Kind of series: Cell cycle arrest in human MDA-MB-231 cells assessed as G1 phase cells at 100 uM incubated for 48 hrs by PI staining based flow cytometric analysis (reference value: 76.7%). The class given is functional.
The subject of series [9] is MDA-MB-231. Kind of series: Cell cycle arrest in human MDA-MB-231 cells assessed as S phase cells at 100 uM incubated for 48 hrs by PI staining based flow cytometric analysis (reference value: 29.9%). The format is functional.
For series [10], the system named is MDA-MB-231. Kind of series: Induction of apoptosis in human MDA-MB-231 cells assessed as necrotic cells at 100 uM incubated for 48 hrs by Annexin V-FITC/PI staining based flow cytometric analysis (reference value: 1.63%). The class given is functional.
For series [11], the system named is MDA-MB-231. Kind of series: Cell cycle arrest in human MDA-MB-231 cells assessed as S phase cells at 100 uM incubated for 72 hrs by PI staining based flow cytometric analysis (reference value: 29.9%). The class given is functional.
Series [12] concerns MDA-MB-231. Kind of series: Cell cycle arrest in human MDA-MB-231 cells assessed as G2 phase cells at 100 uM incubated for 48 hrs by PI staining based flow cytometric analysis (reference value: 7.3%). The format is functional.
In series [13] the test system is MDA-MB-231. Kind of series: Cell cycle arrest in human MDA-MB-231 cells assessed as G1 phase cells at 100 uM incubated for 48 hrs by PI staining based flow cytometric analysis (reference value: 51.5%). The class given is functional.
Series [14] relates to MDA-MB-231. Kind of series: Induction of apoptosis in human MDA-MB-231 cells assessed as viable cells at 100 uM incubated for 48 hrs by Annexin V-FITC/PI staining based flow cytometric analysis (reference value: 95.10%). The following applies: read-out: Activity. The class given is functional.
Series [15] addresses Cell division cycle protein 20 homolog (Homo sapiens, UniProt Q12834). Kind of series: Binding affinity human CDC20 assessed as dissociation constant by SPR analysis. (Surface plasmon resonance follows binding to a sensor surface in real time, without labels.)
The test system of series [16] is MDA-MB-231. Kind of series: Cell cycle arrest in human MDA-MB-231 cells assessed as S phase cells at 100 uM incubated for 48 hrs by PI staining based flow cytometric analysis (reference value: 16.0%). The class given is functional.
Series [17] concerns MDA-MB-231. Kind of series: Cell cycle arrest in human MDA-MB-231 cells assessed as S phase cells at 100 uM incubated for 24 hrs by PI staining based flow cytometric analysis (reference value: 29.9%). The class given is functional.
The subject of series [18] is MDA-MB-231. Kind of series: Induction of apoptosis in human MDA-MB-231 cells assessed as early apoptotic cells at 100 uM incubated for 48 hrs by Annexin V-FITC/PI staining based flow cytometric analysis (reference value: 2.25 %). The class given is functional.
In series [19] the test system is MDA-MB-231. Kind of series: Cell cycle arrest in human MDA-MB-231 cells assessed as G2 phase cells at 100 uM incubated for 72 hrs by PI staining based flow cytometric analysis (reference value: 18.6%). The format is functional.

pIC50, pKd: −log10 of the molar value.

A word on the pIC50: it is −log10 of the IC50, conventionally taken in molar units. As usually defined, the IC50 is the midpoint of a concentration-inhibition curve. The term pKd denotes −log10 of the Kd, conventionally taken in molar units.

Sequence of Cell division cycle protein 20 homolog (Q12834 whole entry): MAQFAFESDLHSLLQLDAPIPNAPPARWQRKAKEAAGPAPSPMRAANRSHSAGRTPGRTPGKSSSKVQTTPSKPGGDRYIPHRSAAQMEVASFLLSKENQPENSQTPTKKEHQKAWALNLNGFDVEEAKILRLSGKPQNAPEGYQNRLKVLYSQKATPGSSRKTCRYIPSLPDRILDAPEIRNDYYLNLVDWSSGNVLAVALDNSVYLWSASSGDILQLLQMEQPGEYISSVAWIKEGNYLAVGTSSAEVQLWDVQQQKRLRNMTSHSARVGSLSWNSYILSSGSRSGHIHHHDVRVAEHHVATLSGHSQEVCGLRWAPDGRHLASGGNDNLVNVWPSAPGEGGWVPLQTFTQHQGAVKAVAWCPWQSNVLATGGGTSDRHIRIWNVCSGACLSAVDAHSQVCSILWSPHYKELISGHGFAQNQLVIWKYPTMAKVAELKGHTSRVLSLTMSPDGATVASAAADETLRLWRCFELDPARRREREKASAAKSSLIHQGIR

Consider `CCC(=O)NC(Nc1nc(Nc2cc(OC)c(OC)c(OC)c2)c2cc[nH]c2n1)C(Cl)(Cl)Cl` (configuration not stated), for which the pIC50 is 4.80 in the series on MDA-MB-468, 4.94 with A549, 5.06 in the series on MDA-MB-231 [1] and 4.83 with MCF7. For the same compound, in [2], the IC50 at 96 h worked out at 9.01 µM.

For the compound `O=C(NC(Nc1nccc(Nc2ccc(C(F)(F)F)cc2)n1)C(Cl)(Cl)Cl)C1CC1` (configuration not stated), the pIC50 in the series with MDA-MB-468, with A549, in the series with MDA-MB-231 [1] and in the series on MCF7 was less than 4.70 in each case. Also, in series [2], the IC50 at 96 h was greater than 20 µM.

As for `CCCCCC(=O)NC(Nc1nc(Nc2cc(OC)cc(OC)c2)c2cc[nH]c2n1)C(Cl)(Cl)Cl` (configuration not stated), the pIC50 in the series with MDA-MB-468, in the series with A549, with MDA-MB-231 [1] and with MCF7 was less than 4.70 in each case. Further, in series [2], the IC50 at 96 h was greater than 20 µM.

As to `CCCCCC(=O)NC(Nc1nc(Nc2ccc(C(F)(F)F)cc2)c2cc[nH]c2n1)C(Cl)(Cl)Cl` (configuration not stated), the pIC50 with MDA-MB-468 was 4.92; in the series with A549, 5.08; with MDA-MB-231 [1] it was 5.21; in the series on MCF7, 5.16. Moreover, the IC50 at 96 h in series [2] came out at 14.4 µM.

In the case of `CCC(=O)NC(Nc1nc(Nc2ccc(OC)c(Cl)c2)c2cc[nH]c2n1)C(Cl)(Cl)Cl` (configuration not stated), the pIC50 with MDA-MB-468, with A549, in the series with MDA-MB-231 [1] and in the series on MCF7 was less than 4.70 throughout. Besides, in [2], the IC50 at 96 h was greater than 20 µM.

`Cc1ncc([N+](=O)[O-])n1CCOC(=O)NC(Nc1ncccn1)C(Cl)(Cl)Cl` (configuration not stated): the Activity in the series with MDA-MB-231 [3] came to 26.1%; in the series on MDA-MB-231 [4], 28.8%; in the series on MDA-MB-231 [5], 27.7%; in the series on MDA-MB-231 [6], 3.12%; with MDA-MB-231 [7] it was 39.2%; in the series on MDA-MB-231 [8], 50.3%. Further, the Activity in the series with MDA-MB-231 [9] was determined as 23.5%; in the series on MDA-MB-231 [10], 2.43%; in the series with MDA-MB-231 [11] it was 24.6%; in the series on MDA-MB-231 [12] it was 11.7%; with MDA-MB-231 [13], 48.8%; in the series on MDA-MB-231 [16], 38%. For the same compound, the Activity came out at 45.1% in the series on MDA-MB-231 [17], 3.22% with MDA-MB-231 [18] and 36.2% in the series with MDA-MB-231 [19]. Also, the pIC50 in the series on MDA-MB-468 was 4.08; with A549, 3.94; in the series with MDA-MB-231 [1], 3.86; in the series with MCF7, 3.96. Moreover, the viability at 100 µM in the series with MDA-MB-231 [14] was 91.2%. The pKd in series [15] was 3.76. Moreover, in [2], the IC50 at 96 h is greater than 200 µM.

As to `COc1cc(Nc2nc(NC(NC(=O)C3CCCCC3)C(Cl)(Cl)Cl)nc3[nH]ccc23)cc(OC)c1OC` (configuration not stated), the pIC50 was 4.91 in the series on MDA-MB-468, 4.97 with A549, 4.94 with MDA-MB-231 [1] and 4.86 in the series on MCF7. Besides, the IC50 at 96 h in series [2] is 14 µM.

For `CCC(=O)NC(n1cnc2c(Nc3cc(OC)cc(OC)c3)nc(N)nc21)C(Cl)(Cl)Cl` (configuration not stated), the pIC50 with MDA-MB-468, with A549, with MDA-MB-231 [1] and with MCF7 was less than 4.70 each time. Further, the IC50 at 96 h in series [2] was greater than 20 µM.
